Where two headings read alike, the source gives them in different places. Each block holds one molecule with its values, some of them ahead of it.
Legend:
[1] = test system: proteins conjugated to SUMO2/3 in CACO2 cells; assay: Immunoblot quantification of SUMO2/3-conjugated proteins (above 50 kDa) in CACO2 cells; assay type: cell-based
Procedure: CACO2 and HeLa cells were cultivated in Minimum Essential Medium (MEM) (Eurobio) supplemented with 2 mM L-Glutamine (Invitrogen), 10% Fetal Bovine Serum (FBS, Eurobio), non-essential aminoacids (Sigma), 1 mM sodium pyruvate (Gibco) and a mixture of penicillin (10000 U/mL) and streptomycin (10 mg/mL). […] CACO2 and T84 cells were seeded in wells at a density of 1.1×10^5 cells/cm^2 and 1.7×10^5 cells/cm^2, respectively, the day before incubation with BCFAs or SCFAs.
(§1) Before treatments, cell culture medium was replaced by HBSS (Hanks' Balanced Salt Solution; Sigma). Cells were then treated as indicated in the text and directly lysed with Laemmli buffer. For BCFAs and SCFAs treatments, 100 mM stock solutions in water were first prepared from the corresponding acidic form (e.g. isobutyric acid) or from the sodium salt of the corresponding basic form (e.g. sodium isobutyrate) and then further diluted in cell culture media (HBSS). When needed, the pH of cell culture medium was set using either 0.1 M NaOH or 0.1 M HCl solution. […] For TNFα treatments, CACO2 cells were first incubated with BCFAs or SCFAs for 1 hour and then incubated with 100 ng/mL recombinant human TNFα (PeproTech). For immunoblotting and qRT-PCR analyses, cells were lysed after 30 min or 1h of incubation with TNFα, respectively. For Transepithelial electrical resistance (TEER) measurements, cells were incubated for 24 h with TNFα. Viability of cells incubated with HBSS at various pH or with BCFAs was assessed using the CellTiter-Glo® luminescent cell viability assay (Promega), according to the manufacturer's protocol.
(§2) Cell lysates and protein extracts from intestinal tissues in Laemmli buffer were boiled for 5 min, sonicated and protein content was resolved using SDS-polyacrylamide gel electrophoresis. Proteins were then transferred on PVDF membranes (GE Healthcare) and detected after incubation with specific antibodies using ECL Clarity Western blotting Substrate (BioRad). […] Quantifications of proteins were performed on a ChemiDoc Imaging System (Bio-rad). SUMO2/3-conjugated proteins levels (above 50 kDa), SUMO1-conjugated protein levels (above 50 kDa), and other specific protein levels were normalized either by the level of total proteins above 50 kDa (determined using the TGX-stain free imaging technology; Bio-rad) or by the level of actin in each lysate.

IκBα = assay: Immunoblot of IκBα levels in TNFα-stimulated CACO2 cells; assay type: cell-based; settings: 1 hour pre-incubation with 5 mM, then 30 min 100 ng/mL TNFα
Procedure: as §1, §2

CACO2 cells = assay: Luminol-based ROS detection assay in CACO2 cells; assay type: cell-based
Procedure: Luminol was dissolved in NaOH 0.1 M to obtain a 50 mM stock solution. A stock solution of 1000 U/mL HRP (HorseRadish Peroxidase) was prepared in parallel in PBS (Phosphate-Buffered Saline). After treatment with BCFAs or SCFAs or incubation in HBSS at pH 5.2, CACO2 and HeLa culture media were collected and centrifugated for 5 min at 13,000×g at room temperature. The pH of these culture media was then buffered to 7.5 to avoid pH-dependent interferences with luminol activity. Luminol (1 mM final concentration) and HRP (4 U/mL) were finally added to each culture media and luminescence was quantified immediately on a luminometer (Tecan).

DSS-treated mice [2] = assay: Fecal calprotectin in DSS mouse model of colitis; assay type: in vivo; settings: 2% DSS in drinking water 7 days, 150 mM in drinking water, 3 days after the end of DSS
Procedure: Eight-weeks-old C57Bl/6JRj male mice (Janvier Labs, Le-Genest-Saint-Isle, France) were housed at 23° C. (5 animals/cage) with a 12-h light-dark cycle in regular open cages. All animals were fed with a non-sterilized standard rodent diet (3430.PM.S10, Serlab, France). Drinking water was not sterilized. Animals were acclimatized to the animal facility for 1 week before experimentations. To monitor the effect of BCFAs on chemically-induced intestinal inflammation, animals were split in three groups (8 animals/group): one group had no treatment, one group was treated with DSS (Dextran Sulfate Sodium, MB Biomedicals, France; 2% in drinking water) from D4 to D11 to induce colitis and one group was treated both with sodium isobutyrate (150 mM in drinking water, pH 7.4; from DO to D13) and DSS (D4 to D11). Fecal pellets were weighted and resuspended in 600 μL of PBS with 1% protease and phosphatase inhibitors (Sigma-Aldrich, USA). After a centrifugation step (12000×g, 15 min, 4° C.), calprotectin was quantified in the obtained supernatants using the S100A8 DuoSet® kit (R&D Systems, Minneapolis), according to the manufacturer's protocol.

DSS-treated mice [3] = assay: Colonic permeability (Lucifer yellow flux, Ussing chambers) in DSS mouse model of colitis; assay type: in vivo; settings: 2% DSS in drinking water 7 days, 150 mM in drinking water, three days after the end of DSS
Procedure: Eight-weeks-old C57Bl/6JRj male mice (Janvier Labs, Le-Genest-Saint-Isle, France) were housed at 23° C. (5 animals/cage) with a 12-h light-dark cycle in regular open cages. All animals were fed with a non-sterilized standard rodent diet (3430.PM.S10, Serlab, France). Drinking water was not sterilized. Animals were acclimatized to the animal facility for 1 week before experimentations. To monitor the effect of BCFAs on chemically-induced intestinal inflammation, animals were split in three groups (8 animals/group): one group had no treatment, one group was treated with DSS (Dextran Sulfate Sodium, MB Biomedicals, France; 2% in drinking water) from D4 to D11 to induce colitis and one group was treated both with sodium isobutyrate (150 mM in drinking water, pH 7.4; from DO to D13) and DSS (D4 to D11). Colon samples were cut along the mesenteric border. Colonic permeability was assessed by measuring Lucifer yellow (440 Da; Sigma-aldrich) fluxes in Ussing chambers with an exchange surface of 0.07 cm2 (Harvard Apparatus, Holliston, MA). Lucifer yellow (250 μg/ml) was added to the mucosal side. After 3 h at 37° C., medium from the serosal side was removed and the fluorescence level of Lucifer yellow (excitation: 428 nm; emission: 540 nm) was quantified.

[4] = pH and acid/base forms of BCFA in HBSS medium; assay type: physicochemical; settings: 5 mM added to HBSS medium
Procedure: as §1
BCFAs are weak organic acids, which exist in solution either as acidic (R—COOH) or basic (R—COO^−) forms.

[5] = CACO2 cells, pH~7.5, 5 mM final concentration

Compound: CCC(=O)O [propionic acid]
level of SUMO2/3-conjugated proteins ([1]; CACO2 cells, 5h, pH~5.2, 5 mM final concentration): significant increase

Compound: CC(=O)[O-].[Na+] [sodium acetate]
SUMOylation pattern [1]: does not trigger any changes

Compound: CCCC(=O)[O-].[Na+] [sodium butyrate, reference compound]
TNFα-triggered degradation of IκBα (IκBα): not observed | SUMOylation pattern [1, 5]: does not trigger any changes | ROS detection after incubation with sodium salts (basic forms) (CACO2 cells): no ROS were detected

concentration present as isobutyrate [4]: ~4990 µM | concentration present as isobutyric acid [4]: ~10 µM | pH of HBSS medium after addition [4]: ~7.5 | proportion present as isobutyrate [4]: ~99.8% | proportion present as isobutyric acid [4]: ~0.2%
Compound: CC(C)C(=O)[O-].[Na+] [sodium isobutyrate]
level of fecal calprotectin (DSS-treated mice [2]): significantly decreases | TNFα-triggered degradation of IκBα (IκBα): not observed | DSS-induced colonic hyperpermeability (DSS-treated mice [3]): significantly decreases | ROS detection after incubation with sodium salts (basic forms) (CACO2 cells): no ROS were detected

Compound: CCC(=O)[O-].[Na+] [sodium propionate]
SUMOylation pattern [1, 5]: does not trigger any changes

— patent US20250127743A1, “USE OF BRANCHED CHAIN FATTY ACIDS (BCFAS) FOR THE TREATMENT OF INTESTINAL INFLAMMATION” (priority 2021, published 2025)
